In patent publication US7820379B2, “Process for high throughput screening of CpG-based immuno-agonist/antagonist” (Coley Pharmaceutical GmbH, priority 2000, dated 2010):

Assays:
human B cells = test: Human B cell proliferation by 3H-thymidine uptake; type: cell-based; conditions: purified human B cells, day two; E. coli DNA 50 μg/ml, ODN 2 μM
Excerpt: Bacterial DNA has been described as a mitogen for both murine and human B cells. Although LPS is also mitogenic for murine B cells, it is generally accepted that LPS is not a mitogen for human B cells. […] B cell proliferation was monitored at day two by ^3H-thymidine uptake.

[1] = system: monocyte-derived dendritic cells (MDDC); test: Cytokine production by monocyte-derived dendritic cells (ELISA); type: cell-based, human; conditions: purified MDDC; ODN 2 μM, LPS 100 ng/ml
Protocol: Human dendritic cells (DC) have been claimed to be responsive to CpG-DNA. […] The converse was true for stimulation of monocyte-derived dendritic cells (MDDC) (FIG. 8 and unpublished data). […] IL-8 and TNF concentration was determined by enzyme-linked immunosorbent assay (ELISA). The CD123+DC response was DNA- and CpG-motif restricted. […] Due to this segregated response we analyzed TLR expression.

| Sequence | B cell proliferation (3H-thymidine uptake) (human B cells) | response of MDDC (IL-8, TNF) [1] |
| --- | --- | --- |
| TCGTCGTTTTGTCGTTTTGTCGTT [ODN 2006] | proliferate | not |
| TGCTGCTTTTGTGCTTTTGTGCTT (listed as DNA, chemistry not fully specified) [ODN 2006-GC] | not |  |
